# Legend:
# [1] = biological target: T1, ADP/ATP translocase 2 (Homo sapiens) (UniProt P05141); experiment: Inhibition of ANT2 in human HeLa cells assessed as growth inhibition at 50 uM incubated for 5 days by crystal violet staining based assay; assay type: cell-based
# T1 sequence (whole entry): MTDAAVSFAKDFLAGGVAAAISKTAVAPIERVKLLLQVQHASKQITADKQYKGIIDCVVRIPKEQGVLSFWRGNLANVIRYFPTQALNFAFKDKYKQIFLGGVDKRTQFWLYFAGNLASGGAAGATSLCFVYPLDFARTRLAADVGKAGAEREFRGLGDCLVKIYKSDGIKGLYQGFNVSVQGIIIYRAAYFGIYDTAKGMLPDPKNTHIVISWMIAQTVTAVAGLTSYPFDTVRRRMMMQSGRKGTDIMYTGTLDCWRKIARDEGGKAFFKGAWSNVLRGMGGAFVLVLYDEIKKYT
# [2] = biological target: T1, ADP/ATP translocase 2 (Homo sapiens); experiment: Inhibition of ANT2 in human HeLa cells assessed as cell survival at 50 uM incubated for 5 days by crystal violet staining based assay
# [3] = Cytotoxicity against mouse NIH/3T3 cells assessed as cell survival at 50 uM incubated for 5 days by crystal violet staining based assay; set-up: species or system NIH3T3; conditions: read-out: Survival
SMILES,growth inhibition (GI) [1] [%],Survival [2] [%],"viability at 120 h, 50 µM [3] [%]"
O=C(CC(=O)C1C(=O)c2ccccc2C1=O)c1ccccc1,84,,
CC(C)CC(=O)C1C(=O)c2ccccc2C1=O,79,5,40

# Reference: ChEMBL document CHEMBL3881531, “ANT2 inhibitor compounds and methods of use thereof” (2009)
